Values joined by “and” are separate entries in the source; they are usually repeats but may differ in a detail not shown here. Equal entries are not always repeated. ± gives the uncertainty stated by the source.
Compound	viscosity (293.15 K, 100 kPa)	viscosity (293.15 K, 101 kPa)	viscosity (298.15 K, 100 kPa)	viscosity (298.15 K, 101 kPa)	viscosity (303.15 K, 100 kPa)	viscosity (303.15 K, 101 kPa)	viscosity (308.15 K, 100 kPa)	viscosity (308.15 K, 101 kPa)	viscosity (313.15 K, 100 kPa)	viscosity (313.15 K, 101 kPa)	viscosity (318.15 K, 100 kPa)	viscosity (318.15 K, 101 kPa)	viscosity (323.15 K, 100 kPa)	viscosity (323.15 K, 101 kPa)	viscosity (303.1 K, 101 kPa)	viscosity (313.1 K, 101 kPa)
CCCC[P+](C)(CCCC)CCCC.COS(=O)(=O)[O-]	729.1 ± 300 mPa·s and 729.1 ± 68 mPa·s	729.1 ± 300 mPa·s	521.3 ± 210 mPa·s and 521.3 ± 43 mPa·s	521.3 ± 210 mPa·s	381.4 ± 150 mPa·s and 381.4 ± 28 mPa·s	381.4 ± 150 mPa·s	286.1 ± 120 mPa·s and 286.1 ± 18 mPa·s	286.1 ± 120 mPa·s	217 ± 88 mPa·s and 217 ± 12 mPa·s	217 ± 88 mPa·s	169.1 ± 68 mPa·s and 169.1 ± 8.3 mPa·s	169.1 ± 68 mPa·s	133.4 ± 54 mPa·s and 133.4 ± 5.9 mPa·s	133.4 ± 54 mPa·s		
C[N+](C)(C)CCC[N+]1(C)CCCCC1.N#C[N-]C#N.N#C[N-]C#N	4503 ± 560 mPa·s and 4503 ± 770 mPa·s		2819 ± 340 mPa·s		1837 ± 210 mPa·s and 1837 ± 270 mPa·s		1224 ± 140 mPa·s		856.1 ± 95 mPa·s and 856.1 ± 110 mPa·s		618.5 ± 67 mPa·s		460.1 ± 49 mPa·s and 460.1 ± 56 mPa·s			
CC1(c2ccccc2)OC1C#N (configuration not stated)		11.77 ± 0.3 mPa·s		9.155 ± 0.24 mPa·s		7.386 ± 0.19 mPa·s				5.17 ± 0.13 mPa·s				3.522 ± 0.092 mPa·s		
CCCC[n+]1ccn(C)c1.O=C([O-])C(F)(F)F				52.9 ± 2 mPa·s		58 ± 2.5 mPa·s				37.83 ± 1.6 mPa·s				26.11 ± 1.1 mPa·s		
CCOC(C)OCC															0.404 ± 0.017 mPa·s	0.364 ± 0.015 mPa·s

From the CheMixHub viscosity set
